Here are results for 13 compounds from patent US20210353564A1, “TREATMENTS FOR ZIKA VIRUS INFECTION” (Saint Louis University, priority 2018, published 2021).

Series [1] has as its system Zika virus. The series is described as follows: Focus Forming Assay, Vero cells drugged at T-1, T0, T1, T8, T12 relative to addition of virus. It is filed as cell-based. Particulars: for change of EC50 with time of compound addition: addition T-1 to T12 relative to virus; for effect on Zika virus replication (focus count): remaining virus after 39 hours. The protocol:
FIGS. 3-14. Focus Forming Assay. Data represent Vero cells drugged with SERM compounds an hour before addition of virus (T-1), upon addition of virus (T0), one hour after addition of virus (T1), eight hours after addition of virus (T8), and twelve hours after addition of virus. Each compound was screened as triplicate measurements and performed in duplicate. The data is shown as focus count (normalized to the control wells) which represents the amount of remaining virus after 39 hours as a function of log concentration.

Series [2] has as its system calmodulin-activated PDE. The settings on record: cited from earlier work.
For series [3], the system named is HCV. The settings on record: cited from earlier work.
The test system of series [4] is ZIKV strain PRVABC59. Kind of series: focus reduction test of ZIKV on Vero cells. The settings on record: focus reduction test (FIG. 1B).
Description: Average+/−StdDev from three independent experiments done in duplicate.
The conditions of series [5]: after two years, only tamoxifen; cited from earlier work.
For series [6] the following is noted: average 4-year follow-up; difference not statistically significant; cited from earlier work.
The target in series [7] is T1, ERa (Homo sapiens, UniProt P03372).
T1 sequence (P03372 1-595): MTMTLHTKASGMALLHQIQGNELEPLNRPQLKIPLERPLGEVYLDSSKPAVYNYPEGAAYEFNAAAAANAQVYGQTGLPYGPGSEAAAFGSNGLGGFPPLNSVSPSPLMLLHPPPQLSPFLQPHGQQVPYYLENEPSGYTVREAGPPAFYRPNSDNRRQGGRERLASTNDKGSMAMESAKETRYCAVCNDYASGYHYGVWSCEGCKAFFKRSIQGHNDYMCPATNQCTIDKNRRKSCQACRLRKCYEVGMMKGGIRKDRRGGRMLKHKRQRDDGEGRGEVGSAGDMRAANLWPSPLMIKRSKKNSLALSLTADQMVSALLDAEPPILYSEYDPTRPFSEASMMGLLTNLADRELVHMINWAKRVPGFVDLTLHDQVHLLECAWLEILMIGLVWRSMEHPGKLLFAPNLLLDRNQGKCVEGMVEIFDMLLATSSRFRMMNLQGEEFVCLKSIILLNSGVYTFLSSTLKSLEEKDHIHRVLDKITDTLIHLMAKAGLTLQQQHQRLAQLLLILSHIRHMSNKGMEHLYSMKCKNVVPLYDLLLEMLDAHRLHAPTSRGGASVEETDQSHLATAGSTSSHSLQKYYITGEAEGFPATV
Particulars: cited from earlier work.

The subject of series [8] is ERa-mediated gene transcription. The settings on record: cited from earlier work.
Series [9] has as its system Ca2+-mediated cytotoxicity and apoptosis. Particulars: cited from earlier work.

Where a name gives a salt, the structure may show the parent alone.

`Oc1ccc([C@H]2COc3cc(O)ccc3C2)cc1` [(S)-Equol, (S)-equol]: in series [1], the “change of EC50 with time of compound addition” value (shortened to “change of EC50”) was “EC50 increases from T8 to T12” and the “effect on Zika virus replication (focus count)” value (from here on “effect on Zika virus replication”) is listed as “diminishes viral replication”.
`Cl.NCCCCCCCCCCNS(=O)(=O)c1cccc2c(Cl)cccc12` [A-7]: in series [2], the IC50 (commonly the midpoint of a concentration-inhibition curve) is 3 µM. In series [1], the “change of EC50” value was “EC50 increases from T1 to T8” and the “effect on Zika virus replication” value is listed as “prevents viral replication”. The “effect on Zika virus replication” value in series [1] (listed as A-7 Hydrochloride) is recorded as “impedes viral replication”.
For the compound `O=c1c(-c2ccc(O)cc2)coc2cc(O)ccc12` [Daidzein], the “effect on Zika virus replication” value in series [1] is listed as “no effect”.
Still for that read-out and setting: the entry for `O=c1c(-c2ccc(O)cc2)coc2cc(O)cc(O)c12` [Genistein] is “no effect”.
As for `C[C@]12CC[C@@H]3c4ccc(O)cc4C[C@@H](CCCCCCCCC[S+]([O-])CCCC(F)(F)C(F)(F)F)[C@H]3[C@@H]1CC[C@@H]2O` (stereo partly drawn) [ICI182780], in [3], the “effect on HCV genome replication” value was “able to inhibit HCV genome replication” and the “toxicity in the HCV replication study” value is listed as “without any apparent toxicity”.
As for `CCCCCCCCCCCCCC(=O)O[C@@H]1[C@@H](C)[C@@]2(O)[C@@H](C=C(CO)C[C@]3(O)C(=O)C(C)=C[C@@H]23)[C@@H]2C(C)(C)[C@]12OC(C)=O` [PMA, phorbol-12-myristate-13-acetate], in series [1], the “change of EC50” value is given as “EC50 increases from T8 to T12” and the “effect on Zika virus replication” value was “diminishes viral replication”.
Consider `CC/C(=C(\c1ccccc1)c1ccc(OCCN(C)C)cc1)c1ccccc1` [TAM, Tamoxifen], for which, in series [4], the “antiviral activity against ZIKV grown in Vero cells” value was “antiviral activity”. Besides, in series [3], the “effect on HCV genome replication” value is “able to inhibit HCV genome replication” and the “toxicity in the HCV replication study” value is listed as “without any apparent toxicity”. Also, the “women with a recurrence” value in series [5] is listed as 7.5%.
In the case of `CC/C(=C(\c1ccccc1)c1ccc(OCCN(C)C)cc1)c1ccccc1` [Tamoxifen citrate], in [1], the “change of EC50” value is “EC50 increases from T1 to T8” and the “effect on Zika virus replication” value is recorded as “prevents viral replication”.
Consider `COc1cc2c(cc1OC)CN(CCc1ccc(NC(=O)c3cc(OC)c(OC)cc3NC(=O)c3cnc4ccccc4c3)cc1)CC2` [Tariquidar], for which, in [1], the “change of EC50” value is “EC50 does not change substantially from T-1 to T12” and the “effect on Zika virus replication” value is given as “prevents viral replication”.
Turning to `C[C@H]1CCCC(=O)CCCCCc2cc(O)cc(O)c2C(=O)O1` [Zearalanone], in series [1], the “effect on Zika virus replication” value is given as “no effect”.
Turning to `O=C(c1ccc(OCCN2CCCCC2)cc1)c1c(-c2ccc(O)cc2)sc2cc(O)ccc12` [raloxifene], in series [6], the “fewer blood clots than in women taking tamoxifen” value is 29% and the “fewer uterine cancers than in women taking tamoxifen” value was 36%.
Regarding Methylpiperidinopyrazole [MPP], the “selectivity for ERa over ERβ” value in [7] is reported as 200 fold. Also, the “selectivity for blocking ERa-mediated gene transcription relative to that of ERβ” value in series [8] is on record as 1000 fold.
As for VAITVLVK [CALP-1], the “effect on Zika virus replication” value in [1] was “increase viral growth during some of the assays”. The IC50 in series [9] was 52 µM.
